Assay [1] deals with human 5-HT2A receptor (Homo sapiens, UniProt P28223). The assay is described as follows: Human 5-HT2A: Radioligand binding assay ([3H]-ketanserin). The conditions noted are these: [3H]-ketanserin displacement, 27° C., 90 min, pH 7.4; read-out: h5-HT2A, IC50. Here is the method:
Exemplary compounds of Formula I were evaluated functionally using FLIPR assay for their effect on h5-HT2A receptor under agonist mode. The objective of this study was to evaluate the binding properties of exemplary compounds of Formula I on 5-hydroxytryptamine receptor 2A (5-HT2A). • Human 5-HT2A: Radioligand binding assay:
• i. The assay buffer was prepared following the table below.
• Adjust pH to 7.4 followed by […] sterile filtration • ii. 8 doses of reference and test compounds starting from 10 mM stock solution as required was prepared by 5-fold serial dilutions with 100% (v/v) DMSO. • iii. UniFilter-96 GF/B plate was pretreated: • a. 50 μl/well of 0.5% (v/v) PEI was added to UniFilter-96 […] plates. The plates were sealed and incubated at 4° C. for 3 hrs. • b. After incubation, the plates were washed 3 times with ice-cold wash buffer (50 mM Tris, pH7.4). • iv. The assay plate was prepared: • a. Cell membrane was diluted with assay buffer and 330 μl/well was added to 96 round deep well plates to reach a concentration of 20 μg/well. • b. 8 concentrations of reference or test compounds were prepared and 110 μl/well was added to 96 round deep well plates. • c. [3H]-ketanserin was diluted with assay buffer to 5 nM (5X final concentration) and 110 μl/well was added to 96 round deep well plates. • v. The plate was centrifuged at 1000 rpm for 30 secs and then agitated at 600 rpm, R.T. for 5 min. • vi. The plates were sealed and the plate incubated at 27° C. for 90 min. • vii. The incubation was stopped by vacuum filtration onto GF/B filter plates followed by 4 times washing with ice-cold wash buffer (50 mM Tris, pH7.4). • viii. The plates were dried at 37° C. for 45 min. • ix. The filter plates were sealed and 40 μl/well of scintillation cocktail was added. • x. The plate was read by using a Microbeta2 microplate counter.
• 1. For reference and test compounds, the results were expressed as % Inhibition, using the normalization equation: N=100−100×(U−C2)/(C1-C2), where U is the unknown value, C1 is the average of high controls, and C2 is the average of low controls. • 2. The IC50 was determined by fitting percentage of inhibition as a function of compound concentrations with Hill equation using XLfit.

Assay [2] deals with T1, human 5-HT2A (h5-HT2A) receptor (Homo sapiens, UniProt P28223).
T1 construct: expressed in transfected cells; host or cells: HEK293 (HTR2A&Ga15-HEK293, tetracycline-induced)
T1 sequence (P28223 whole entry): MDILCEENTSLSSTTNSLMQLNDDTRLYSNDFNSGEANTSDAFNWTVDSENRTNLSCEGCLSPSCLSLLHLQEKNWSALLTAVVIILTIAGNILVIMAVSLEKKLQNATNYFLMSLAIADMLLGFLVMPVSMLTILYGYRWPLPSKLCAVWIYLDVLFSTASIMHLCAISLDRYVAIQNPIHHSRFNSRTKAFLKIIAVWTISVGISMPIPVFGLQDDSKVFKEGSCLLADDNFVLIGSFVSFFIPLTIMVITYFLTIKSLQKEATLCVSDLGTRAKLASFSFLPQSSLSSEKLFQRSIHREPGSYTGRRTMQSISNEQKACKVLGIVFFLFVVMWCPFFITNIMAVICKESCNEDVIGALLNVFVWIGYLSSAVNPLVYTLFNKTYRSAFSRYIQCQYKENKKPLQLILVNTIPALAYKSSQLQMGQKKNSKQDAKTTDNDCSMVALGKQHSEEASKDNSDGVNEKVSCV
Briefly: FLIPR assay: human 5-HT2A (agonist mode). It is filed as cell-based. The note with it: for RFU@10 μM: @10 μM (head), footnote: curve fitting with activation (%) @ 10 mM with RFU, RFU=Fmax−Fmin; for EC50: FLIPR calcium, agonist mode, HTR2A&Gα15-HEK293 cells, ND: not detected. Here is the method: Assessment of the effect of exemplary compounds of Formula I targeting on human 5-HT2A (h5-HT2A) receptor under agonist mode.
HTR2A&Ga15-HEK293 cells were cultured in DMEM medium containing 10% dialyzed FBS and 1x penicillin-streptomycin, 100 μg/mL Hygromycin B and 300 μg/mL G418. The cells were passaged about three times a week, maintained between ~30% to ~90% confluence.
• 1. The cell culture medium (DMEM medium containing 10% dialyzed FBS and 1× penicillin-streptomycin, 100 μg/mL Hygromycin B and 300 μg/mL G418), TrypLE™ Express and DPBS to R.T. was warmed in advance. • 2. For induction, 1 μg/ml tetracycline (final concentration) was added to cell culture medium and incubated for 48 hours prior to seeding cells into plate at 37° C., 5% (v/v) CO2. The cell culture medium was removed from flask. Cells were washed with DPBS. • 3. 2 mL TrypLE™ Express was added to the flask, mixed well by gentle shaking and cells were incubated at 37° C. for a few minutes. • The cells were checked for morphological change under microscope, the digestion was stopped by adding 4 mL cell culture medium to the flask when most of cells turned to round. • 5. The cell suspension was transferred into a 15 mL centrifuge tube, and then centrifuged at 1,200 rpm for 5 minutes. • 6. The supernatant was removed. The cell pellet was resuspended with 2 mL cell culture medium. • 7. The cell density was counted using cell counter. Only cells with >85% viability were used for the assay. • 8. Cells were diluted to 6.67×10^5/mL with cell culture medium. • 9. 30 μL/well cell suspensions added into a 384-well cell plate (The cell density was 20,000 cells/well). • 10. The cell plate was incubated overnight at 37° C., 5% (v/v) CO2. 2.3 Cell handling • 1. On the day of experiments, culture medium was removed from the cell plate. • 2. 10 μL of assay buffer (20 mM HEPES, in 1×HBSS, pH 7.4) was added to each well of the cell plate. • 3. 2×dye solution was prepared following the manual of the FLIPR® Calcium 6 Assay Kit: • i. The dye was diluted with assay buffer. • ii. Probenecid was added to the final concentration of 5 mM. • iii. Vortexed vigorously for 1-2 minutes. • 4. 10 μL of 2× dye solution was added to each well of the cell plate • 5. The cell plate was placed on plate shaker, followed by shaking at 600 rpm for 2 minutes. • 6. The plate was incubated at 37° C. for 2 hours followed by an additional 15-minute incubation at 25° C. 2.4 Prepare 3×compound • 1. Serotonin HCl was prepared to the concentration of 10 mM with DMSO. • 2. The test compounds were prepared to the concentration of 10 mM with DMSO. • 3. The compounds were added to a 384-well compound source plate. • 4. 3-folds serial dilutions were performed with DMSO. • 5. 90 nL/well of serial diluted compounds was transferred from source plate to a 384-well compound plate by using an Echo. • 6. 30 μL/well of assay buffer (20 mM HEPES in 1x HBSS, pH 7.4) was added to the compound plate. • 7. The plate was mixed on-plate shaker for 2 minutes.
• 1. After the cells were incubated with dye solution, the cell plate, compound plate containing 3×compounds and FLIPR tips were placed into FLIPR. • 2. 10 μL of 3×compounds transferred from the compound plate to the cell plate by FLIPR. • 3. The plate was read for 160 sec with 1 sec interval and the data of agonist mode was obtained.
• 1. The normalized fluorescence reading (RFU) was calculated as shown below, wherein Fmax and Fmin stand for maximum and minimum of calcium signal during defined time window:
RFU=Fmax−Fmin • 2. EC50 by fitting RFU against log of compound concentrations with Hill equation was calculated using XLfit.
The following procedure can also be followed: • 1. Cells are cultured in cell culture medium (DMEM containing 10% FBS, 1× penicillin-streptomycin 300 μg/ml G418 and 100 μg/ml hygromycin B) at 37° C., 5% (v/V) CO2. • 2. One day before the assays, the cells are detached using TrypLE™ Express and cells are counted using cell counter.

human 5-HT2A receptor, sequence (P28223 whole entry): as above

For `[2H]C([2H])([2H])Oc1ccc2c(c1)N(C([2H])([2H])[C@H]1CCCN1C([2H])([2H])[2H])CC2` [(R)-I-28, (R)-6-(Methoxy-d3)-1-((1-(methyl-d3)pyrrolidin-2-yl)methyl-d2) indoline], the IC50 in assay [1] was determined as 8.48 µM. Besides, in assay [2], the “RFU@10 μM” value is given as 3744 RFU and the concentration giving a half-maximal response (EC50) was 1.09 µM.
For `COc1ccc2c(c1)N(C[C@H]1CCCN1)CC2` [(R)-I-59, (R)-6-Methoxy-1-(pyrrolidin-2-ylmethyl) indoline], the half-maximal inhibitory concentration (IC50) in assay [1] stood at 15.3 µM. Also, in assay [2], the “RFU@10 μM” value is 801 RFU and the half-maximal effective concentration (EC50) came out at 1.21 µM.
For the compound `COc1cc2c(cc1OC)N(C[C@H]1CCCN1C)CC2` [(R)-I-34, (R)-5,6-dimethoxy-1-((1-methylpyrrolidin-2-yl)methyl) indoline], the IC50 in assay [1] was more than 30 µM. In addition, in assay [2], the “RFU@10 μM” value is listed as 268 RFU.
For the compound `COc1cccc2c1N(C[C@H]1CCCN1C)CC2` [(R)-I-46, (R)-7-Methoxy-1-((1-methylpyrrolidin-2-yl)methyl) indoline], the IC50 in assay [1] was 2.46 µM. For the same compound, in assay [2], the “RFU@10 μM” value came to 487 RFU and the EC50 was found to be 1.14 µM.
The like results for `[2H]C([2H])([2H])N1CCC[C@@H]1C([2H])([2H])N1CCc2ccccc21` [(R)-I-1, (R)-1-((1-(Methyl-d3)pyrrolidin-2-yl)methyl-d2) indoline] were, in that order, 4.53 µM, 386 RFU and 3.55 µM.
As to `[2H]C([2H])([2H])N(CCN1CCc2ccccc21)C([2H])([2H])[2H]` [Compound I-71, 2-(Indolin-1-yl)-N,N-bis(methyl-d3) ethan-1-amine], in assay [1], the half-inhibitory concentration (IC50) was 15 µM. In addition, the “RFU@10 μM” value in assay [2] worked out at 280 RFU.
`COc1ccc2c(c1)N(C[C@H]1CCCN1C)CC2` [(R)-I-58, (R)-6-Methoxy-1-((1-methylpyrrolidin-2-yl)methyl) indoline]: in assay [1], the 50% inhibitory concentration (IC50) worked out at 6.53 µM. In addition, in assay [2], the “RFU@10 μM” value is 796 RFU and the half-maximal effective concentration (EC50) was 0.322 µM.
In the case of `[2H]C([2H])([2H])N(CCN1CCc2ccc(OC)cc21)C([2H])([2H])[2H]` [Compound I-70, 2-(6-Methoxyindolin-1-yl)-N, N-bis(methyl-d3) ethan-1-amine], the IC50 in assay [1] turned out to be 25.8 µM. Also, the “RFU@10 μM” value in assay [2] turned out to be 303 RFU.
For `[2H]C([2H])([2H])N1CCC[C@@H]1C([2H])([2H])N1CCc2ccc(OC)cc21` [(R)-I-57, (R)-6-Methoxy-1-((1-(methyl-d3)pyrrolidin-2-yl)methyl-d2) indoline], the IC50 in assay [1] came to 7.96 µM. Also, in assay [2], the “RFU@10 μM” value is listed as 749 RFU and the EC50 turned out to be 0.422 µM.
For the compound `COc1cccc2c1CCN2C[C@H]1CCCN1C` [(R)-I-47, (R)-4-Methoxy-1-((1-methylpyrrolidin-2-yl)methyl) indoline], the IC50 in assay [1] is more than 30 µM. In addition, in assay [2], the “RFU@10 μM” value worked out at 174 RFU.

For the origin of these results see patent US20260356814A1, “INDOLINE DERIVATIVES AS SEROTONERGIC AGENTS USEFUL FOR THE TREATMENT OF DISORDERS RELATED THERETO” (MINDSET PHARMA INC., priority 2022, published 2026).
